Publication PMC10788925 (Journal of Medicinal Chemistry, 2023)
Read-outs that look alike come from different tables or passages of the source.

What was measured:
HEV-3 replicon p6-Gluc = assay: microbe, parasite or virus in culture; type: cell-based, Hepatitis E virus; settings: for EC50 / EC90: Hepatitis E virus
in vitro [1] = settings: human
Vero E6 cells = settings: African green monkey (Chlorocebus sp.)
RVFV strain MP-12 = assay: microbe, parasite or virus in culture; type: cell-based; settings: Rift Valley fever virus
Huh-7 cells = settings: human
CHIKV LR2006-OPY1 = assay: microbe, parasite or virus in culture; type: cell-based; settings: Chikungunya virus
SARS-CoV-2 = assay: microbe, parasite or virus in culture; type: cell-based
in vitro [2] = assay: in vitro
in vitro [3] = settings: human; remark: listed apart in the source
[4] = HepG2, 24 h, read-out: HEV, EC90 (24 h, nM)
[5] = HepG2, 48 h, read-out: HEV, EC90 (48 h, nM)2
[6] = Severe acute respiratory syndrome coronavirus 2, Vero C1008, 24 h
[7] = Severe acute respiratory syndrome coronavirus 2, Vero C1008, 48 h
[8] = African green monkey (Chlorocebus sp.)

| SMILES | EC50 (HEV-3 replicon p6-Gluc; HepG2, 24 h) | EC90 (HEV-3 replicon p6-Gluc; HepG2, 24 h) | EC50 (HEV-3 replicon p6-Gluc; HepG2, 48 h) | EC90 (HEV-3 replicon p6-Gluc; HepG2, 48 h) | EC50 (RVFV strain MP-12; Vero C1008, 24 h) | EC90 (RVFV strain MP-12; Vero C1008, 24 h) | EC50 (RVFV strain MP-12; Vero C1008, 48 h) | EC90 (RVFV strain MP-12; Vero C1008, 48 h) | CC50 (Huh-7 cells) | EC50 (CHIKV LR2006-OPY1; Huh-7, 24 h) | EC90 (CHIKV LR2006-OPY1; Huh-7, 24 h) | EC50 (CHIKV LR2006-OPY1; Huh-7, 48 h) | EC90 (CHIKV LR2006-OPY1; Huh-7, 48 h) | EC50 (SARS-CoV-2; [6]) | EC90 (SARS-CoV-2; [6]) | EC50 (SARS-CoV-2; [7]) | EC90 (SARS-CoV-2; [7]) | CC50 (in vitro [2]; [8]) | CC50 at 24 h (in vitro [1]) | CC50 at 48 h (in vitro [1]) | further results |
| --- | --- | --- | --- | --- | --- | --- | --- | --- | --- | --- | --- | --- | --- | --- | --- | --- | --- | --- | --- | --- | --- |
| COC(=O)[C@H]1[C@@H](O)[C@@]2(O)c3c(F)cc(F)cc3O[C@@]2(c2ccc(OC)cc2)[C@@H]1c1ccccc1 (racemic) [9c, (±)-Methyl (1R,2R,3S,3aR,8bS)-6,8-difluoro-1,8b-dihydroxy-3a-(4-methoxyphenyl)-3-phenyl-2,3,3a,8b-tetrahydro-1H-cyclopenta[b]benzofuran-2-carboxylate] | > 1000 nM | > 1000 nM | > 1000 nM | > 1000 nM |  |  |  |  |  |  |  |  |  |  |  |  |  |  |  |  | EC50 (HEV-3 replicon p6-Gluc; HepG2, 24 h, read-out: HEV, EC50 (24 h, nM)): > 1000 nM; EC90 (HEV-3 replicon p6-Gluc; [4]): > 1000 nM; EC50 (HEV-3 replicon p6-Gluc; HepG2, 48 h, read-out: HEV, EC50 (48 h, nM)): > 1000 nM; EC90 (HEV-3 replicon p6-Gluc; [5]): > 1000 nM; CC50 (HepG2 cells; read-out: HEP2G, CC50 (24 h), 24 h): > 1000 nM; CC50 (HepG2 cells; read-out: HEP2G, CC50 (48 h), 48 h): > 1000 nM; CC50 (in vitro [1]): > 1000 nM |
| COC(=O)[C@H]1[C@@H](O)[C@@]2(O)c3c(Cl)cc(Cl)cc3O[C@@]2(c2ccc(OC)cc2)[C@@H]1c1ccccc1 (racemic) [9da, (±)-Methyl (1R,2R,3S,3aR,8bS)-6,8-dichloro-1,8b-dihydroxy-3a-(4-methoxyphenyl)-3-phenyl-2,3,3a,8b-tetrahydro-1H-cyclopenta[b]benzofuran-2-carboxylate] | 25.4 nM | 642 nM | 17.5 nM | 725 nM | 102 nM | 227 nM | 143 nM | 217 nM | > 1000 nM | 18.1 nM | 83.4 nM | 22.4 nM | 92.3 nM | 111 nM | 387 nM | 176 nM | 558 nM | > 1000 nM | 798 nM | 149 nM | CC50 (Vero E6 cells): > 1000 nM; CC50 (in vitro [2]; chlorocebus sabaeus, CC50): > 1000 nM; CC50 (in vitro [3]): > 1000 nM |
| CONC(=O)[C@H]1[C@@H](O)[C@@]2(O)c3c(Cl)cc(Br)cc3O[C@@]2(c2ccc(OC)cc2)[C@@H]1c1ccccc1 (racemic) [14f, (±)-(1R,2R,3S,3aR,8bS)-6-Bromo-8-chloro-1,8b-dihydroxy-N-methoxy-3a-(4-methoxyphenyl)-3-phenyl-2,3,3a,8b-tetrahydro-1H-cyclopenta[b]benzofuran-2-carboxamide] | 4.6 nM | 53.4 nM | 2.6 nM | 30.2 nM | 42.1 nM | 92.5 nM | 106 nM | 113 nM | > 1000 nM | 3.1 nM | 19 nM | 3.4 nM | 20.2 nM | 51.4 nM | 920 nM | 190 nM | 340 nM | > 1000 nM | 407 nM | 15.6 nM | CC50 (in vitro [2]; chlorocebus sabaeus, CC50): > 1000 nM; CC50 (in vitro [3]): > 1000 nM |
| COCOc1cc(F)c2c(c1)O[C@@]1(c3ccc(OC)cc3)[C@H](c3ccccc3)[C@@H](C(=O)OC)[C@@H](O)[C@@]21O (racemic) [9na, (±)-Methyl (1R,2R,3S,3aR,8bS)-8-fluoro-1,8b-dihydroxy-6-(methoxymethoxy)-3a-(4-methoxyphenyl)-3-phenyl-2,3,3a,8b-tetrahydro-1H-cyclopenta[b]benzofuran-2-carboxylate] | 202 nM | > 1000 nM | 146 nM | 873 nM |  |  |  |  |  |  |  |  |  |  |  |  |  |  | 912 nM | 236 nM |  |
| COC(=O)[C@H]1[C@@H](O)[C@@]2(O)c3c(OC)cc(F)cc3O[C@@]2(c2ccc(OC)cc2)[C@@H]1c1ccccc1 (racemic) [9i, (±)-Methyl (1R,2R,3S,3aR,8bS)-6-fluoro-1,8b-dihydroxy-8-methoxy-3a-(4-methoxyphenyl)-3-phenyl-2,3,3a,8b-tetrahydro-1H-cyclopenta[b]benzofuran-2-carboxylate] | > 1000 nM | > 1000 nM | 732 nM | > 1000 nM |  |  |  |  |  |  |  |  |  |  |  |  |  |  |  | 904 nM | EC90 (HEV-3 replicon p6-Gluc; [4]): > 1000 nM; EC90 (HEV-3 replicon p6-Gluc; [5]): > 1000 nM; CC50 (in vitro [1]): > 1000 nM |
| COc1cc(OC)c2c(c1)O[C@@]1(c3ccc(Cl)cc3)[C@H](c3ccccc3)[C@@H](C(=O)N(C)C)[C@@H](O)[C@@]21O (racemic) [14aa, (±)-(1R,2R,3S,3aR,8bS)-3a-(4-chlorophenyl)-1,8b-dihydroxy-6,8-dimethoxy-N,N-dimethyl-3-phenyl-2,3,3a,8b-tetrahydro-1H-cyclopenta[b]benzofuran-2-carboxamide] | 7.2 nM | 174 nM | 8.9 nM | 102 nM |  |  |  |  |  |  |  |  |  |  |  |  |  |  | 390 nM | 22.7 nM |  |
| COC(=O)[C@H]1[C@@H](O)[C@@]2(O)c3c(Br)cc(OC)cc3O[C@@]2(c2ccc(OC)cc2)[C@@H]1c1ccccc1 (racemic) [9l, (±)-Methyl (1R,2R,3S,3aR,8bS)-8-bromo-1,8b-dihydroxy-6-methoxy-3a-(4-methoxyphenyl)-3-phenyl-2,3,3a,8b-tetrahydro-1H-cyclopenta[b]benzofuran-2-carboxylate] | 83.6 nM | 343 nM | 44.7 nM | 305 nM |  |  |  |  |  |  |  |  |  |  |  |  |  |  | 787 nM | 114 nM |  |
| COC(=O)[C@H]1[C@@H](O)[C@@]2(O)c3c(OC)cc(Br)cc3O[C@@]2(c2ccc(OC)cc2)[C@@H]1c1ccccc1 (racemic) [9m, (±)-Methyl (1R,2R,3S,3aR,8bS)-6-bromo-1,8b-dihydroxy-8-methoxy-3a-(4-methoxyphenyl)-3-phenyl-2,3,3a,8b-tetrahydro-1H-cyclopenta[b]benzofuran-2-carboxylate] | 3.1 nM | 40.7 nM | 1.4 nM | 30.6 nM | 26.6 nM | 39.4 nM | 43.3 nM | 53.2 nM | > 1000 nM | 2.1 nM | 12.3 nM | 2.9 nM | 9.8 nM | 33.9 nM | 40.4 nM | 47.8 nM | 80 nM | > 1000 nM | 421 nM | 13.8 nM | CC50 (Vero E6 cells): > 1000 nM; antiviral response at higher cell density (HEV-3 replicon p6-Gluc): decreased; cell viability at higher cell density (HepG2 cells): improved; CC50 (in vitro [2]; chlorocebus sabaeus, CC50): > 1000 nM; CC50 (in vitro [3]): > 1000 nM |
| COC(=O)[C@H]1[C@@H](O)[C@@]2(O)c3c(OC)cc(Cl)cc3O[C@@]2(c2ccc(OC)cc2)[C@@H]1c1ccccc1 (racemic) [9k, (±)-Methyl (1R,2R,3S,3aR,8bS)-6-chloro-1,8b-dihydroxy-8-methoxy-3a-(4-methoxyphenyl)-3-phenyl-2,3,3a,8b-tetrahydro-1H-cyclopenta[b]benzofuran-2-carboxylate] | 5.4 nM | 45.1 nM | 2.5 nM | 45.5 nM |  |  |  |  |  |  |  |  |  |  |  |  |  |  | 443 nM | 19.9 nM |  |
| CONC(=O)[C@H]1[C@@H](O)[C@@]2(O)c3c(F)cc(OC)cc3O[C@@]2(c2ccc(OC)cc2)[C@@H]1c1ccccc1 (racemic) [14hb, (±)-(1R,2R,3S,3aR,8bS)-8-Fluoro-1,8b-dihydroxy-N,6-dimethoxy-3a-(4-methoxyphenyl)-3-phenyl-2,3,3a,8b-tetrahydro-1H-cyclopenta[b]benzofuran-2-carboxamide] | 17.2 nM | 91.2 nM | 10.9 nM | 69.8 nM |  |  |  |  |  |  |  |  |  |  |  |  |  |  | 491 nM | 27.5 nM |  |
